Results from BindingDB's records for doi:10.1021/acs.jnatprod.8b00507 (Chinese Academy of Sciences, 2019).

Experiment: Inhibition of P-gp in doxorubicin-resistant human MCF7/ADR cells assessed as reversal of doxorubicin resistance by measuring doxorubicin IC50 incubated for 48 hrs by MTT assay (Rvb = doxorubicin alone = 64.8 +/- 2.1 uM)

Going from `C=C1[C@H](OC(C)=O)[C@H]2[C@@H](OC(=O)c3ccccc3)[C@@H](C)C[C@]2(OC(C)=O)C(=O)[C@@H](C)/C=C/C(C)(C)C(=O)[C@H](O)[C@H]1OC(C)=O` to `C=C1[C@H](OC(=O)c2ccccc2)[C@H]2[C@@H](OC(C)=O)[C@@H](C)C[C@]2(OC(C)=O)C(=O)[C@@H](C)/C=C/C(C)(C)C(=O)[C@H](O)[C@H]1OC(C)=O`, the IC50 rises from 13.3 µM to 21.6 µM (1.6-fold).

First: C=C1[C@H](OC(C)=O)[C@H]2[C@@H](OC(=O)c3ccccc3)[C@](C)(OC(C)=O)C[C@]2(O)C(=O)[C@@H](C)/C=C/C(C)(C)C(=O)[C@H](OC(C)=O)[C@H]1OC(=O)C(C)C
Second: C=C1[C@H](OC(C)=O)[C@H]2[C@@H](OC(=O)c3ccccc3)[C@](C)(OC(C)=O)C[C@]2(O)C(=O)[C@@H](C)/C=C/C(C)(C)C(=O)[C@H](OC(=O)C(C)C)[C@H]1OC(C)=O
The IC50 of the first is 2.4-fold higher: 12.9 µM for the first, 5.3 µM for the second. The second is the more potent here.

Compared with `C=C1[C@H](OC(C)=O)[C@H]2[C@@H](OC(=O)CC(C)=O)[C@@H](C)C[C@]2(O)C(=O)[C@@H](C)/C=C/C(C)(C)C(=O)[C@H](OC(C)=O)[C@H]1OC(=O)c1ccccc1`, `C=C1[C@H](OC(C)=O)[C@H]2[C@@H](OC(=O)c3ccccc3)[C@@H](C)C[C@]2(O)C(=O)[C@@H](C)/C=C/C(C)(C)C(=O)[C@H](O)[C@H]1OC(C)=O` is 2.5-fold higher in IC50: 10.3 µM for the first, 25.3 µM for the second.

`C=C1[C@H](OC(C)=O)[C@H]2[C@@H](OC(=O)c3ccccc3)[C@@H](C)C[C@]2(OC(C)=O)C(=O)[C@@H](C)/C=C/C(C)(C)C(=O)[C@H](OC(C)=O)[C@H]1OC(=O)c1ccccc1` and `C=C1[C@H](OC(=O)c2ccccc2)[C@H]2[C@@H](OC(C)=O)[C@@H](C)C[C@]2(OC(C)=O)C(=O)[C@@H](C)/C=C/C(C)(C)C(=O)[C@H](OC(=O)c2ccccc2)[C@H]1OC(C)=O` are within 1.5-fold of each other in IC50: 8 µM for the first, 7.3 µM for the second.

Going from `C=C1[C@H](OC(C)=O)[C@H]2[C@@H](OC(=O)c3ccccc3)[C@](C)(O)C[C@]2(O)C(=O)[C@@H](C)/C=C/C(C)(C)C(=O)[C@H](OC(=O)C(C)C)[C@H]1OC(C)=O` to `C=C1[C@H](OC(C)=O)[C@H]2[C@@H](OC(=O)c3ccccc3)[C@](C)(O)C[C@]2(O)C(=O)[C@@H](C)/C=C/C(C)(C)C(=O)[C@H](OC(C)=O)[C@H]1OC(=O)c1ccccc1`, the IC50 rises from 5 µM to 7.8 µM (1.6-fold). The first is the more potent here.

`C=C1[C@H](O)[C@H]2[C@@H](OC(=O)c3ccccc3)[C@](C)(O)C[C@]2(O)[C@H](OC(C)=O)[C@@H](C)/C=C/C(C)(C)C(=O)[C@H](OC(C)=O)[C@H]1OC(=O)c1ccccc1` and `C=C1[C@H](O)[C@H]2[C@@H](OC(=O)c3ccccc3)[C@](C)(OC(C)=O)C[C@]2(O)[C@H](OC(C)=O)[C@@H](C)/C=C/C(C)(C)C(=O)[C@H](OC(C)=O)[C@H]1OC(C)=O` are within 1.5-fold of each other in IC50: 28 µM for the first, 20.6 µM for the second.

`C=C1[C@H](OC(=O)c2ccccc2)[C@@H](OC(C)=O)[C@@H](OC(C)=O)C(C)(C)/C=C/[C@H](C)C(=O)[C@@]2(OC(C)=O)C[C@H](C)[C@H](OC(=O)c3ccccc3)[C@@H]2[C@H]1OC(C)=O` and `C=C1[C@H](OC(C)=O)[C@H]2[C@@H](OC(=O)c3ccccc3)[C@@H](C)C[C@]2(OC(C)=O)C(=O)[C@@H](C)/C=C/C(C)(C)C(=O)[C@H](O)[C@H]1OC(=O)c1ccccc1` are within 1.5-fold of each other in IC50: 9.9 µM for the first, 9.5 µM for the second.

`C=C1[C@H](OC(C)=O)[C@H]2[C@@H](OC(=O)c3ccccc3)[C@@H](C)C[C@]2(OC(C)=O)C(=O)[C@@H](C)/C=C/C(C)(C)C(=O)[C@H](OC(C)=O)[C@H]1OC(C)=O` and `C=C1[C@H](OC(C)=O)CC(=O)C(C)(C)/C=C/[C@H](C)C(=O)[C@@]2(OC(C)=O)C[C@H](C)[C@H](OC(=O)c3ccccc3)[C@@H]2[C@H]1OC(C)=O` are within 1.5-fold of each other in IC50: 9.6 µM for the first, 13.1 µM for the second.

Compound `C=C1[C@H](OC(C)=O)CC(=O)C(C)(C)/C=C/[C@H](C)C(=O)[C@@]2(OC(C)=O)C[C@H](C)[C@H](OC(C)=O)[C@@H]2[C@H]1OC(=O)c1ccccc1` has an IC50 of 14.2 µM.
